“Also recorded” adds a separate entry of the source.
Columns and labels:
[1] = Neu5Ac/Neu5Gc glycan microarray analysis; format: binding; conditions: ZBiotech Neu5Gc/Neu5Ac N-Glycan Array, FIG. 1A
Source text: A Neu5Ac/Neu5Gc glycan microarray (as previously used in Wang et al, 2018, Biophys Biochem Res Commun 500:765-771; ZBiotech Neu5Gc/Neu5Ac N-Glycan Array) was utilised to determine the binding of SubBA12 to sialylated glycans with SubB2M used as a control. This glycan array comprises over 40 match pairs of glycans covalently linked to the array slide surface. Each pair of glycans is identical apart from the presence of either a Neu5Ac or Neu5Gc moiety.
Neu5Ac/Neu5Gc glycan array slides were purchased from Z-Biotech (Aurora, Colorado, USA, https://www.zbiotech.com/neu5gc-neu5ac-n-glycan-array.html). A 16-subarray slide array was used and glycan array analysis of SubB2M and SubBA12 was performed as per the manufacturer's protocols. Arrays were scanned using a Innocan 1100AL laser scanner and analysed using Mapix array analysis software.

[2] = SPR analysis of glycan binding (all tested glycans); conditions: lectin immobilized on CM5 chip; glycans up to a concentration of 20 μM; FIG. 1B
Protocol: SubBA12 was analysed for binding to a range of Neu5Ac, Neu5Gc and non-sialylated synthetic oligosaccharides using SPR.
For glycan analysis, SubB2M was immobilized through flow cells 2 and 3 and SubBA12 was immobilized through flow cell 4 (capture levels: 5000-6000 Response Units (RU)) onto a series S sensor chip CM5 (GE) using the NHS capture kit. Flow cell 1 was run as a blank immobilization. Glycans purchased from Chemily Glycoscience (Atlanta, GA) were analysed across a five-fold dilution series in PBS at a maximum concentration of 20 μM. Analysis was run using single cycle analysis and double reference subtraction on the Biacore S200 evaluation software.

[3] = Ser12>Ala12 mutation; described previously (Byres et al, 2008); cited from earlier work

SubBA12: mutant form of SubB (Ser12>Ala12) having the amino acid sequence of SEQ ID NO: 4; lacks or has substantially reduced sialic acid binding
binding to Neu5Ac-containing glycans on glycan array [1]: Essentially no binding; also recorded: little to no recognition
binding to Neu5Gc-containing glycans on glycan array [1]: Essentially no binding; also recorded: little to no recognition
binding (concentration dependent interaction) to any of the tested glycans by SPR [2]: No binding; also recorded: No concentration dependent interactions
binding to sialylated glycans [3]: cannot bind
